The target in assay [1] is Fibroblast growth factor receptor 1 (Homo sapiens, UniProt P11362). The note with it: at 10 µM.
Assay [2] has as its target LIM domain kinase 1 (Homo sapiens) (UniProt P53667). Kind of assay: Selectivity interaction (KinomeScan (DiscoverX)) EUB0001049a LIMK1. The note with it: at 1 µM.
Assay [3] deals with Mitogen-activated protein kinase 10 (Homo sapiens, UniProt P53779). Kind of assay: Selectivity interaction (KinomeScan (DiscoverX)) EUB0000695a MAPK10. The note with it: at 100 nM.
Chain of Mitogen-activated protein kinase 10 (P53779 whole entry): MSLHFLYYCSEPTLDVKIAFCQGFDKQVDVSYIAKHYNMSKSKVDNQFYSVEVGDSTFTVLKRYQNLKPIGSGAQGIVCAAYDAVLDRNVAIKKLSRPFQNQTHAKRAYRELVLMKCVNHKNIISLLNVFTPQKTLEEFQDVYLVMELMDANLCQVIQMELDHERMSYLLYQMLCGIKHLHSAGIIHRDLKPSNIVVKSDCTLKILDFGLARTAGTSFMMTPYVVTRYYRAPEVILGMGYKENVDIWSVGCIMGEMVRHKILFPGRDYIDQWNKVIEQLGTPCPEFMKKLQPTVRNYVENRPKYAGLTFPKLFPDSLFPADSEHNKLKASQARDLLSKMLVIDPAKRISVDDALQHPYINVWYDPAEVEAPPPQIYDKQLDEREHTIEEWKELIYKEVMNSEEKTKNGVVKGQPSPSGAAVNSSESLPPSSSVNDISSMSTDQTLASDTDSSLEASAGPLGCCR
In assay [4] the target is BMP-2-inducible protein kinase (Homo sapiens) (UniProt Q9NSY1). The assay can be described thus: Selectivity interaction (KINOMEscan (DiscoverX)) EUB0001868a BMP2K. The settings on record: at 1 µM.
Chain of BMP-2-inducible protein kinase (Homo sapiens) (Q9NSY1 whole entry, looked up): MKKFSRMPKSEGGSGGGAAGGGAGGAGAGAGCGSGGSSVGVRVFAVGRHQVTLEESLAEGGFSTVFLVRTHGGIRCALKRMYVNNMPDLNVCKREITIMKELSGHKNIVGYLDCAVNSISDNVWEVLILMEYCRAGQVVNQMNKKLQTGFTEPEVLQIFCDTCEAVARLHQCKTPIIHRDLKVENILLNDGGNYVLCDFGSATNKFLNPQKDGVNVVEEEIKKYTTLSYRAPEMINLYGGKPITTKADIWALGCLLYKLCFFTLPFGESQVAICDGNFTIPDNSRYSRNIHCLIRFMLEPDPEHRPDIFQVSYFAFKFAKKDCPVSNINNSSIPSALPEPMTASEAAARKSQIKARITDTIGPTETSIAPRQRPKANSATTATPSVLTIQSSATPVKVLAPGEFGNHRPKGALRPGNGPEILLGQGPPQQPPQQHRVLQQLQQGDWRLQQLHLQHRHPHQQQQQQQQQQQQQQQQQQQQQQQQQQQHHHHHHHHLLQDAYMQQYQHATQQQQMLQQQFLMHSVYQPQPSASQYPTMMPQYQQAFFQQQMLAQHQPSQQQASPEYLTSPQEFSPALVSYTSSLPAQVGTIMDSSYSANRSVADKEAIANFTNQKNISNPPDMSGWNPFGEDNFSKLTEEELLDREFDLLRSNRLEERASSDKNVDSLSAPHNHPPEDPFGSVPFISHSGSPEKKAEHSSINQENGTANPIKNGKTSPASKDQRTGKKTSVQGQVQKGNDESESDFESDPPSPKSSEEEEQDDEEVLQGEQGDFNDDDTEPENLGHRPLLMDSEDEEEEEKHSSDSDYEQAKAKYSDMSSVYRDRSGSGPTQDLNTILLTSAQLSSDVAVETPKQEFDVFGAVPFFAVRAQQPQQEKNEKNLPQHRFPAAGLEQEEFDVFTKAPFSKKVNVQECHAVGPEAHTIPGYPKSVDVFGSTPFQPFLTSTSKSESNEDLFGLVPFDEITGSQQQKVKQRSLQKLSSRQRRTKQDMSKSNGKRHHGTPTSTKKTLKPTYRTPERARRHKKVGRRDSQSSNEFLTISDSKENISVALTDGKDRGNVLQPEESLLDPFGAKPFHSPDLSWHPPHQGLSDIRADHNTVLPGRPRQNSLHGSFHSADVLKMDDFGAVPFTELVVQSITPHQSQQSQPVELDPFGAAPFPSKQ
The target of assay [5] is T1, Serine/threonine-protein kinase Nek8 (Homo sapiens) (UniProt Q86SG6).
T1 sequence (whole entry): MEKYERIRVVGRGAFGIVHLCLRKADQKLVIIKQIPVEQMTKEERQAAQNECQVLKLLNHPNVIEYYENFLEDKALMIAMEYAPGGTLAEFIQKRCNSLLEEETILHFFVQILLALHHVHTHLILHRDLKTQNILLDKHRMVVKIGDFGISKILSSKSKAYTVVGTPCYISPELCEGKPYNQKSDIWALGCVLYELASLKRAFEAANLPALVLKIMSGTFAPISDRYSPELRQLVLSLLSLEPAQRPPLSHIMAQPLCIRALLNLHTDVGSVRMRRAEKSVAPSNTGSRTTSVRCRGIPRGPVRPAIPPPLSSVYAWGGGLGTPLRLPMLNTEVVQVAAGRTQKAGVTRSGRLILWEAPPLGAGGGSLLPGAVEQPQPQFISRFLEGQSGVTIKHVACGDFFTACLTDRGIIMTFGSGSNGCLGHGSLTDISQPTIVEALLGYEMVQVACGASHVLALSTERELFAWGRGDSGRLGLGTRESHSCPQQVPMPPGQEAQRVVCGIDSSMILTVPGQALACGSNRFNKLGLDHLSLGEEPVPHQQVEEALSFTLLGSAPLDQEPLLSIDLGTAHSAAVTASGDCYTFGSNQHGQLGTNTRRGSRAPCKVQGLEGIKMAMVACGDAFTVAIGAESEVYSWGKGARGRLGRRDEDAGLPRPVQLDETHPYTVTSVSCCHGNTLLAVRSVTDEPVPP
The assay can be described thus: Selectivity interaction (LanthaScreen Eu Kinase Binding Assay) EUB0001632a NEK8. The note with it: at 10 µM. For orientation: Time-resolved FRET reads energy transfer from a long-lived donor to a nearby acceptor.

In assay [6] the target is T2, Serine/threonine-protein kinase TBK1 (Homo sapiens) (UniProt Q9UHD2).
T2 sequence (whole entry): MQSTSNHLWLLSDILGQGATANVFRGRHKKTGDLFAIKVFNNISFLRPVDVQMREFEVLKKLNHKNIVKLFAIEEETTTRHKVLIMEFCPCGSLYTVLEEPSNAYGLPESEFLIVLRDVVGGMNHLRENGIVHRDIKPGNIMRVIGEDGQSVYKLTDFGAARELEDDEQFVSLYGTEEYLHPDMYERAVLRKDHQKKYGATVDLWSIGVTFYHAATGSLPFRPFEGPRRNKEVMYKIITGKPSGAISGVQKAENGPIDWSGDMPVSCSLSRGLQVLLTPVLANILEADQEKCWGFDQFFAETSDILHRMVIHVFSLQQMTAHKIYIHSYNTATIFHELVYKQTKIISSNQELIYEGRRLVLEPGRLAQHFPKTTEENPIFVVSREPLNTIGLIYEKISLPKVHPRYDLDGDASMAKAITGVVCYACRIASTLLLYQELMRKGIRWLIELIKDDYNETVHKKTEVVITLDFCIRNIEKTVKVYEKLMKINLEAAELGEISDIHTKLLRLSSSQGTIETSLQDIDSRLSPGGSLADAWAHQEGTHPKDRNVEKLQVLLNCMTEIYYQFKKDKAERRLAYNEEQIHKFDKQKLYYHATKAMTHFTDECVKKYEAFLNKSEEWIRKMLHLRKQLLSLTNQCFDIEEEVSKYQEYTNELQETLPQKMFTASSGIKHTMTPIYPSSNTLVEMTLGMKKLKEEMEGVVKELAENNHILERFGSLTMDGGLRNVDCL
Kind of assay: Selectivity interaction (SelectScreen profiling (Invitrogen)) EUB0000607a TBK1. The settings on record: at 2 µM.

The target of assay [7] is T3, Mitogen-activated protein kinase kinase kinase kinase 2 (Homo sapiens) (UniProt Q12851).
T3 sequence (whole entry): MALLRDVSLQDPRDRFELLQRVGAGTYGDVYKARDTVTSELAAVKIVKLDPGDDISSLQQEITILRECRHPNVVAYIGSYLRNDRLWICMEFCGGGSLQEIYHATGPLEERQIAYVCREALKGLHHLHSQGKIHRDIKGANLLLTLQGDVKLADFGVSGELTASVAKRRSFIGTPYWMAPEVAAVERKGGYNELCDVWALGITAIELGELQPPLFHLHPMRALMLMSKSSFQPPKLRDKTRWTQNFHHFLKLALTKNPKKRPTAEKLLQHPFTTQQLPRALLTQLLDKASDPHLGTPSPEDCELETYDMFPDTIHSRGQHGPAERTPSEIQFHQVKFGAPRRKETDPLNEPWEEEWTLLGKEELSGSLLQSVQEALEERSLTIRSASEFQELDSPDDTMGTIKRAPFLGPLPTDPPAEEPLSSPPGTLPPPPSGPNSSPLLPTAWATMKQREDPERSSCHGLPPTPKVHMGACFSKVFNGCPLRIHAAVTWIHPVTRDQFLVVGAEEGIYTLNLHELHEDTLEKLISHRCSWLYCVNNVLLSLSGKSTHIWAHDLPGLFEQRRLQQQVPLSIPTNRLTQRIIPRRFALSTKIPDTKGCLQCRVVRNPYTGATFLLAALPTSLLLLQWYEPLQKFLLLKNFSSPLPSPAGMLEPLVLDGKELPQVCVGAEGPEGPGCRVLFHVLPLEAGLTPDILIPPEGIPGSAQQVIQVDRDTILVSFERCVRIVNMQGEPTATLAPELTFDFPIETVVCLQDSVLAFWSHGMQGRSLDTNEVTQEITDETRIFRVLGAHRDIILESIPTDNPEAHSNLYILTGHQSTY
Kind of assay: Selectivity interaction (ActivX KiNativ screen (kinase selectivity in THP-1 cell lysates)) EUB0000639a MAP4K2. The class given is subcellular. The note with it: lysate.

Chain of LIM domain kinase 1 (Homo sapiens) (P53667 whole entry, looked up, the tested form may be a part): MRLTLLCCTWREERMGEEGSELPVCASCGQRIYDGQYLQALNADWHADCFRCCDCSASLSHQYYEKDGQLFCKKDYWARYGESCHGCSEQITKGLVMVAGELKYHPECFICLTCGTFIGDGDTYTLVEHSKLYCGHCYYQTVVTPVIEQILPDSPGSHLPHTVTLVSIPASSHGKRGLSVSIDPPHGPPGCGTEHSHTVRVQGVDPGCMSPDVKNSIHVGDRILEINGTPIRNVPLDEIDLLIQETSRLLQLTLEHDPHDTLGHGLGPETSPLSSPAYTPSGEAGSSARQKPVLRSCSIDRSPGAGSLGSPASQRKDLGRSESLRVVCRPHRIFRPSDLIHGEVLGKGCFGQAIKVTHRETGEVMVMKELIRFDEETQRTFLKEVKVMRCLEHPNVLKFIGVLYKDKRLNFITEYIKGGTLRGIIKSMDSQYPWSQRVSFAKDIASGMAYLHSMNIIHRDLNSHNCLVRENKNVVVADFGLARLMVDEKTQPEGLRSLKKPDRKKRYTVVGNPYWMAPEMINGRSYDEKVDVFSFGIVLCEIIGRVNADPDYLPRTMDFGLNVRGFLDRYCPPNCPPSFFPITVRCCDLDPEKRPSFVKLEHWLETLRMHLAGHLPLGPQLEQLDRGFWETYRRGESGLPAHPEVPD
Chain of Fibroblast growth factor receptor 1 (P11362 22-822 limits assumed): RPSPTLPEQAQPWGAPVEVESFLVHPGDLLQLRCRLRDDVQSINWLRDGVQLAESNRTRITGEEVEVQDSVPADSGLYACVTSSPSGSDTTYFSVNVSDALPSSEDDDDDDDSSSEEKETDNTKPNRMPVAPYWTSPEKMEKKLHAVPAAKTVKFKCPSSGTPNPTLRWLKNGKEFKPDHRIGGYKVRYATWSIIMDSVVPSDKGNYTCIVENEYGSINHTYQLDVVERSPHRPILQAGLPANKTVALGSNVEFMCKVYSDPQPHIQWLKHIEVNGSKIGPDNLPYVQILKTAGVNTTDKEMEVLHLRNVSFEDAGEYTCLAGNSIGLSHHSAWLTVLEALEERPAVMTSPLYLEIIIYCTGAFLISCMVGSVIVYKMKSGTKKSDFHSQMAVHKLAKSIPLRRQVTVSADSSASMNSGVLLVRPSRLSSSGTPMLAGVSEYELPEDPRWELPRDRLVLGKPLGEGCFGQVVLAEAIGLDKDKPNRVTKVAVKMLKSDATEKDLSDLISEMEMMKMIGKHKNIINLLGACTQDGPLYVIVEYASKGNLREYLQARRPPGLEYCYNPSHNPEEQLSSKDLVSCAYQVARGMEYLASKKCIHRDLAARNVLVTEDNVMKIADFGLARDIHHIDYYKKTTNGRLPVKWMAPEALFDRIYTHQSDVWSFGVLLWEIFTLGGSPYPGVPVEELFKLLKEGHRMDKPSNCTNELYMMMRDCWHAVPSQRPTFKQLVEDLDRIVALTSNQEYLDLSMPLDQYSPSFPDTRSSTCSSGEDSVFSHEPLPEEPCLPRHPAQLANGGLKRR

In turn, `Cc1cc([C@@H](C)Nc2ccccc2C(=O)O)c2nc(N3CCOCC3)cc(=O)n2c1` [AZD-6482] registered a % of control in assay [1] of 89%.
`COc1cc(Nc2nc(C)cc(-c3cnn4nc(OC)ccc34)n2)cc(C(F)(F)F)c1` registered a % of control in assay [2] of 75%.
With `Cc1cc(F)c(C(=O)Nc2cccc(-c3nncn3C(C)C)n2)cc1-n1cnc(C2CC2)c1`, in assay [3], the % of control stood at 71%.
`Cc1cc(-c2ccnc(Nc3cnn(C)c3)n2)ccc1CNC(=O)N1CC(OC(C)C)C1` gave a % of control in assay [4] of 18%.
For the compound `Cn1cc(-n2cnc3c(NCc4nc5cc(Cl)c(Cl)cc5[nH]4)nc(N4CCOCC4)nc32)cn1`, in assay [5], the % of inhibition was -38.3%.
On to `CNC(=O)Nc1ccc(-c2nc(N3CC4CCC(C3)O4)c3cnn(C4CCC5(CC4)OCCO5)c3n2)cc1`, for which the % of inhibition in assay [6] is 2%.
Take `CC[C@@H]1[C@H](F)C(=O)N[C@@H]1COc1nccc2cc(C(N)=O)c(OC)cc12` [ZIMLOVISERTIB]: the % of inhibition is -10% in assay [7] (at 0.01 µM); -5.8% in assay [7] (at 0.04 µM); -8.2% in assay [7] (at 0.2 µM); -2.9% in assay [7] (at 1 µM); -12.1% in assay [7] (at 5 µM).

The values above are taken from ChEMBL document CHEMBL5465560, “Selectivity Literature for EUbOPEN Chemogenomic Library” (2024).
